Where only a bound is given, the exact number is not on record here.

Series [1] relates to recombinant NL4-3 virus (nef section replaced with Renilla luciferase gene) in MT-2 cells. The experiment in a line: HIV cell culture assay (antiviral activity, luciferase readout). The series is classed as cell-based. The conditions noted are these: MT-2 cells infected for 4-5 days with recombinant NL4-3 luciferase virus. The method in brief: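 NL4-3 reporter virus carrying Renilla luciferase in place of part of nef, produced in 293T cells, was used to infect MT-2 cells for 4-5 days with serial compound dilutions. Luciferase activity was read with a live-cell substrate; EC50 derived from the median effect equation.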

Series [2] can be described thus: Compound cytotoxicity, XTT-based colorimetric assay. Format: cell-based. The method in brief:
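CC50 from uninfected MT2 cells run under the antiviral-assay protocol without virus. Viability read on day 4 by XTT colorimetric assay.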

[3] abbreviates: human, uninfected MT2 cells, Table 1a, day 4, XTT.
The mark [4] stands for this setting: human, uninfected MT2 cells, Table 1, day 4, XTT.

For `O=C(Cn1nc(C(F)F)c2c1C(F)(F)[C@@H]1C[C@H]21)NC(Cc1cc(F)cc(F)c1)c1nc2cc[nH]c2cc1-c1ccc2c(c1)C(=O)NC2` (stereo partly drawn) [Example 61, 2-((3bS,4aR)-3-(difluoromethyl)-5,5-difluoro-3b,4,4a,5-tetrahydro-1H-cyclopropa[3,4]cyclopenta[1,2-c]pyrazol-1-yl)-N-(2-(3,5-difluorophenyl)-1-(6-(3-oxoisoindolin-5-yl)-1H-pyrrolo[3,2-b]pyridin-5-yl)ethyl)acetamide], the EC50 (commonly the concentration at which the effect is half-maximal) in series [1] (Renilla, NL43, Table 1a) turned out to be 4.51 nM. Further, in series [2] (setting [3]), the half-maximal cytotoxic concentration (CC50) (usually the concentration giving 50% cytotoxicity) at 4 days is greater than 10000 nM.
On to `Cn1nc(NS(C)(=O)=O)c2c(Cl)ccc(-n3c([C@H](Cc4cc(F)cc(F)c4)NC(=O)Cn4ccc(C(F)(F)F)n4)nc4cc(C(F)(F)F)ccc4c3=O)c21` (single isomer, unassigned) [Example 141], for which the EC50 in series [1] (Table 1a) is 217 nM. The molecule also returned a CC50 at 4 days in series [2] (setting [3]) greater than 1000 nM.
For `CS(=O)(=O)Nc1nn(CC(F)F)c2c(-c3cc4[nH]ncc4nc3[C@H](Cc3cc(F)cc(F)c3)NC(=O)Cn3nc(C(F)F)c4c3C(F)(F)[C@@H]3C[C@H]43)ccc(Cl)c12` (single isomer, unassigned) [Example 92], in series [1] (Renilla, NL43, Table 1a), the EC50 came to 0.161 nM. This molecule showed a cytotoxic concentration (CC50) at 4 days in series [2] (setting [3]) greater than 10000 nM.
For `Cn1nc(NS(C)(=O)=O)c2c(Cl)ccc(-n3c([C@H](Cc4cc(F)cc(F)c4)NC(=O)Cn4nc(C(F)F)c5c4C(F)(F)[C@@H]4C[C@H]54)nc4ccc(Cl)c(F)c4c3=O)c21` (single isomer, unassigned) [Example 176], in series [1] (Table 1a), the EC50 was found to be 0.19 nM. The CC50 at 4 days in series [2] (setting [3]) is greater than 1000 nM.
Take `Cn1nc(NS(C)(=O)=O)c2c(Cl)ccc(-c3cc4scnc4nc3C(Cc3cc(F)cc(F)c3)NC(=O)Cn3nc(C(F)F)c4c3C(F)(F)[C@@H]3C[C@H]43)c21` (single isomer, unassigned) [Example 1.4]: the half-maximal effective concentration (EC50) in series [1] (Table 1) is 0.1 nM. Moreover, the CC50 at 4 days in series [2] (setting [4]) is greater than 10000 nM.
For the molecule `Cn1nc(NS(C)(=O)=O)c2c(Cl)ccc(-n3c([C@H](Cc4cc(F)cc(F)c4)NC(=O)Cn4ccc(C5CC5)n4)nc4cc(C(C)(C)S(C)(=O)=O)ccc4c3=O)c21` (single isomer, unassigned) [Example 212], the EC50 in series [1] (Renilla, NL43, Table 1a) came out at 0.63 nM. This molecule had a CC50 at 4 days in series [2] (setting [3]) greater than 1000 nM.
The like results for `Cn1nc(NS(C)(=O)=O)c2c(Cl)ccc(-c3cc4[nH]cc(Cl)c4nc3[C@H](Cc3cc(F)cc(F)c3)NC(=O)Cn3nc(C(F)F)c4c3C(F)(F)[C@@H]3C[C@H]43)c21` (single isomer, unassigned) [Example 89] were, in that order, 0.66 nM and greater than 10000 nM.
On to `CNC(=O)c1cc(-c2cc3[nH]ncc3nc2[C@H](Cc2cc(F)cc(F)c2)NC(=O)Cn2nc(C(F)F)c3c2C(F)(F)[C@@H]2C[C@H]32)ccc1F` [Example 10.7, 5-(5-((S)-1-(2-((3bS,4aR)-3-(difluoromethyl)-5,5-difluoro-3b,4,4a,5-tetrahydro-1H-cyclopropa[3,4]cyclopenta[1,2-c]pyrazol-1-yl)acetamido)-2-(3,5-difluorophenyl)ethyl)-1H-pyrazolo[4,3-b]pyridin-6-yl)-2-fluoro-N-methylbenzamide], for which the EC50 in series [1] (Renilla, NL43, Table 1) turned out to be 51 nM. The same molecule had a half-maximal cytotoxic concentration (CC50) at 4 days in series [2] (setting [4]) greater than 10000 nM.
For the molecule `Cn1ccc2nc([C@H](Cc3cc(F)cc(F)c3)NC(=O)Cn3nc(C(F)F)c4c3C(F)(F)[C@@H]3C[C@H]43)c(-c3ccc(Cl)c4c(NS(C)(=O)=O)nn(C)c34)cc21` (single isomer, unassigned) [Example 119], the EC50 in series [1] (Renilla, NL43, Table 1a) is 0.0924 nM. The molecule further yielded a half-maximal cytotoxic concentration (CC50) at 4 days in series [2] (setting [3]) greater than 10000 nM.
In the same order, the values of `Cn1nc(NS(C)(=O)=O)c2c(Cl)ccc(-n3c([C@H](Cc4cc(F)cc(F)c4)NC(=O)Cn4nc(C(F)F)c5c4C(F)(F)[C@@H]4C[C@H]54)nc4cc(F)cc(F)c4c3=O)c21` (single isomer, unassigned) [Example 130] are 0.15 nM and greater than 1000 nM.
In the same order, the values of `NC(=O)c1cc(-n2c([C@H](Cc3cc(F)cc(F)c3)NC(=O)Cn3nc(C(F)F)c4c3C(F)(F)[C@@H]3C[C@H]43)nc3ncccc3c2=O)ccc1F` [Example 33, 5-{2-[(1S)-1-{2-[(2S,4R)-9-(difluoromethyl)-5,5-difluoro-7,8-diazatricyclo[4.3.0.0^2,4]nona-1(6),8-dien-7-yl]acetamido}-2-(3,5-difluorophenyl)ethyl]-4-oxo-3H,4H-pyrido[2,3-d]pyrimidin-3-yl}-2-fluorobenzamide] are 3.92 nM and greater than 10000 nM.
Consider `O=C(Cn1nc(C(F)F)c2c1C(F)(F)[C@@H]1C[C@H]21)N[C@@H](Cc1cc(F)cc(F)c1)c1nc2cn[nH]c2cc1-c1ccc(F)c(C(=O)O)c1` [Example 10.25, 5-(5-((S)-1-(2-((3bS,4aR)-3-(difluoromethyl)-5,5-difluoro-3b,4,4a,5-tetrahydro-1H-cyclopropa[3,4]cyclopenta[1,2-c]pyrazol-1-yl)acetamido)-2-(3,5-difluorophenyl)ethyl)-1H-pyrazolo[4,3-b]pyridin-6-yl)-2-fluorobenzoic acid], for which the EC50 in series [1] (Renilla, NL43, Table 1) is 580 nM. In series [2] (setting [4]), this molecule gave a CC50 at 4 days greater than 10000 nM.
With `O=C(Cc1c[nH]c2ccc(O)cc12)N[C@@H](Cc1cc(F)cc(F)c1)c1nc2ccccc2nc1-c1ccc2c(c1)C(=O)NC2` [Example 158, (S)—N-(2-(3,5-difluorophenyl)-1-(3-(3-oxoisoindolin-5-yl)quinoxalin-2-yl)ethyl)-2-(5-hydroxy-1H-indol-3-yl)acetamide], in series [1] (Renilla, NL43, Table 1a), the EC50 amounted to 102 nM. The molecule also gave a cytotoxic concentration (CC50) at 4 days in series [2] (setting [3]) greater than 10000 nM.
For the molecule `CS(=O)(=O)Nc1nn(CC(F)(F)F)c2c(-c3cc4[nH]ncc4nc3[C@H](Cc3cc(F)cc(F)c3)NC(=O)Cn3nc(C(F)F)c4c3C(F)(F)[C@@H]3C[C@H]43)ccc(Cl)c12` (single isomer, unassigned) [Example 94], the EC50 in series [1] (Renilla, NL43, Table 1a) stood at 0.146 nM. This molecule had a CC50 at 4 days in series [2] (setting [3]) greater than 1000 nM.
For the molecule `CC(C)c1ccc(-c2cc3[nH]ncc3nc2C(Cc2cc(F)cc(F)c2)NC(=O)Cn2nc(C(F)F)c3c2C(F)(F)[C@@H]2C[C@H]32)cn1` (single isomer, unassigned) [Example 3.9], the EC50 in series [1] (Renilla, NL43, Table 1) came out at 9.9 nM. In series [2] (setting [4]), the CC50 at 4 days is 9600 nM.
The like results for `O=C(Cn1nc(C(F)F)c2c1C(F)(F)[C@@H]1C[C@H]21)N[C@@H](Cc1cc(F)cc(F)c1)c1nc2ncccc2c(=O)n1-c1ccc2scnc2c1` [Example 10.24] were, in that order, 1.7 nM and greater than 10000 nM.
For `O=C(Cn1nc(C(F)F)c2c1C(F)(F)[C@@H]1C[C@H]21)N[C@@H](Cc1cc(F)cc(F)c1)c1nc2ncccc2c(=O)n1-c1ccc2c(c1)C(=O)NC2` [Example 31, 2-[(2S,4R)-9-(difluoromethyl)-5,5-difluoro-7,8-diazatricyclo[4.3.0.0^2,4]nona-1(6),8-dien-7-yl]-N-[(1S)-2-(3,5-difluorophenyl)-1-[4-oxo-3-(3-oxo-2,3-dihydro-1H-isoindol-5-yl)-3H,4H-pyrido[2,3-d]pyrimidin-2-yl]ethyl]acetamide], the EC50 in series [1] (Renilla, NL43, Table 1a) was determined as 0.99 nM. The same molecule yielded a CC50 at 4 days in series [2] (setting [3]) greater than 10000 nM.
As for `Cn1nc(NS(C)(=O)=O)c2c(Cl)ccc(-n3c([C@H](Cc4cc(F)cc(F)c4)NC(=O)Cn4ccc(C(F)(F)F)n4)nc4ccc(OC(F)(F)F)cc4c3=O)c21` (single isomer, unassigned) [Example 143], in series [1] (Table 1a), the EC50 came to 84 nM. The molecule further registered a CC50 at 4 days in series [2] (setting [3]) greater than 1000 nM.
Regarding `Cn1nc(NS(C)(=O)=O)c2c(Cl)ccc(-n3c([C@H](Cc4cc(F)cc(F)c4)NC(=O)Cn4nc5c(c4C(F)F)CCC5)nc4ncccc4c3=O)c21` (single isomer, unassigned) [Example 48.2], the EC50 in series [1] (Renilla, NL43, Table 1a) came to 0.16 nM. The cytotoxic concentration (CC50) at 4 days in series [2] (setting [3]) is greater than 1000 nM.
`C[Si](C)(C)CCOCn1ncc2nc(C(Cc3cc(F)cc(F)c3)NC(=O)Cc3c[nH]c4ccc(F)cc34)c(-c3ccc4scnc4c3)cc21` (stereo not drawn) [Int 6a, N-(1-(6-(benzo[d]thiazol-5-yl)-1-((2-(trimethylsilyl)ethoxy)methyl)-1H-pyrazolo[4,3-b]pyridin-5-yl)-2-(3,5-difluorophenyl)ethyl)-2-(5-fluoro-1H-indol-3-yl)acetamide]: the half-maximal effective concentration (EC50) in series [1] (Renilla, NL43, Table 1) worked out at 110 nM. This molecule also returned a CC50 at 4 days in series [2] (human; Table 1; uninfected MT2 cells, day 4, XTT) of 29200 nM.
On to `Cc1ccc(C)c2c(=O)n(-c3ccc(Cl)c4c(NS(C)(=O)=O)nn(C)c34)c([C@H](Cc3cc(F)cc(F)c3)NC(=O)Cn3nc(C(F)F)c4c3C(F)(F)[C@@H]3C[C@H]43)nc12` (single isomer, unassigned) [Example 68], for which the concentration for a half-maximal effect (EC50) in series [1] (Renilla, NL43, Table 1a) is 4.69 nM. For the same molecule, in series [2] (setting [3]), the CC50 at 4 days was greater than 1000 nM.
`O=C(Cn1nc(C(F)F)c2c1C(F)(F)[C@@H]1C[C@H]21)N[C@@H](Cc1cc(F)cc(F)c1)c1nc2ncccc2c(=O)n1-c1ccc2ncsc2c1` [Example 36, N-[(1S)-1-[3-(1,3-benzothiazol-6-yl)-4-oxo-3H,4H-pyrido[2,3-d]pyrimidin-2-yl]-2-(3,5-difluorophenyl)ethyl]-2-[(2S,4R)-9-(difluoromethyl)-5,5-difluoro-7,8-diazatricyclo[4.3.0.0^2,4]nona-1(6),8-dien-7-yl]acetamide]: the EC50 in series [1] (Renilla, NL43, Table 1a) worked out at 10.4 nM. In addition, in series [2] (setting [3]), the CC50 at 4 days is greater than 1000 nM.
On to `Cn1nc(NS(C)(=O)=O)c2c(Cl)ccc(-n3c([C@H](Cc4cc(F)cc(F)c4)NC(=O)Cn4nc(C(F)F)c5c4C(F)(F)[C@@H]4C[C@H]54)nc4cc(C(F)(F)F)ccc4c3=O)c21` (single isomer, unassigned) [Example 137], for which, in series [1] (Table 1a), the EC50 was found to be 9.89 nM. In series [2] (setting [3]), this molecule showed a half-maximal cytotoxic concentration (CC50) at 4 days greater than 1000 nM.
In the same order, the values of `Cc1c(F)ccc2c(=O)n(-c3ccc(Cl)c4c(NS(C)(=O)=O)nn(C)c34)c([C@H](Cc3cc(F)cc(F)c3)NC(=O)Cn3nc(C(F)F)c4c3C(F)(F)[C@@H]3C[C@H]43)nc12` (single isomer, unassigned) [Example 107] are 27.3 nM and greater than 1000 nM.

(Values after patent publication US10954252B1, “Inhibitors of human immunodeficiency virus replication” (ViiV HEALTHCARE UK (NO.5) LIMITED, priority 2017, dated 2021).)
